# Laboratory results reported in article PMC11124822, “Discovery and Anticancer Screening of Novel Oxindole-Based Derivative Bearing Pyridyl Group as Potent and Selective Dual FLT3/CDK2 Kinase Inhibitor” (Pharmaceuticals, 2024).
# Tests used:
# Experiment in all cases: NCI-60 antiproliferative screen (SRB)
# [1] = system: HL-60(TB); format: cell-based, human; conditions: 48 h
# [2] = system: K-562; format: cell-based, human; conditions: 48 h
# [3] = system: RPMI-8226; format: cell-based, human; conditions: 48 h
# [4] = system: NCI-H23; format: cell-based, human; conditions: 48 h
# [5] = system: NCI-H322M; format: cell-based, human; conditions: five-dose, 48 h, NCI-H322M
# [6] = system: NCI-H460; format: cell-based, human; conditions: 48 h
# [7] = system: NCI-H522; format: cell-based, human; conditions: 48 h
# [8] = system: COLO 205; format: cell-based, human; conditions: 48 h
# [9] = system: HCC-2998; format: cell-based, human; conditions: 48 h
# [10] = system: HCT-15; format: cell-based, human; conditions: 48 h
# [11] = system: SW-620; format: cell-based, human; conditions: 48 h
# [12] = system: SF-268; format: cell-based, human; conditions: 48 h
# [13] = system: SF-539; format: cell-based, human; conditions: 48 h
# [14] = system: MALME-3M; format: cell-based, human; conditions: five-dose, 48 h, MELME-3M
# [15] = system: M14; format: cell-based, human; conditions: 48 h
# [16] = system: MDA-MB-435; format: cell-based, human; conditions: 48 h
# [17] = system: SK-MEL-2; format: cell-based, human; conditions: 48 h
# [18] = system: OVCAR-3; format: cell-based, human; conditions: 48 h
# [19] = system: OVCAR-5; format: cell-based, human; conditions: 48 h
# [20] = system: NCI/ADR-RES; format: cell-based, human; conditions: 48 h
# [21] = system: 786-0; format: cell-based, human; conditions: 48 h
# [22] = system: A498; format: cell-based, human; conditions: 48 h
# [23] = system: ACHN; format: cell-based, human; conditions: 48 h
# [24] = system: UO-31; format: cell-based, human; conditions: five-dose, 48 h, UO-31
# [25] = system: DU-145; format: cell-based, human; conditions: 48 h
# [26] = system: MCF7; format: cell-based, human; conditions: 48 h
# [27] = system: HS 578T; format: cell-based, human; conditions: 48 h
# [28] = system: BT-549; format: cell-based, human; conditions: 48 h
# [29] = system: SR; conditions: Homo sapiens, 48 h, read-out: Growth inhibition (%)
# Description: (§1) Anticancer activity was tested against 60 cancer cell lines (NCI-60) after 48h treatments with a single dosage of 10 μM of compounds by using sulforhodamine B assay [39] on the traditional 96-well platform. […] The human cancer cell lines of the NCI-60 panel are grown in RPMI 1640 medium supplemented with 5% FBS (fetal bovine serum) and 2 mM L-glutamine. […] For further analysis of promising compounds, five dose screens were performed against the NCI-60 panel. Drug treatments are performed in 5 doses using 10-fold or ½ log dose dilutions.
# [30] = system: SNB-75; conditions: Homo sapiens, SNB-75, 48 h, read-out: Growth inhibition (%)
# [31] = system: OVCAR-4; conditions: Homo sapiens, OVCAR-4, 48 h, read-out: Growth inhibition (%)
# Description: as §1
smiles,measurement,setting,value
"O=C1Nc2cc(Cl)ccc2C1=Cc1ccc(OCc2cccnc2)cc1 (mixture of isomers) [Compound 5l, (E/Z)-6-Chloro-3-[4-(pyridin-3-ylmethoxy)benzylidene] indolin-2-one]",GI50,"[1]; Homo sapiens, HL-60, five-dose, HL60(TB)",4.08 µM
same,CC50,"[1]; Homo sapiens, HL-60, five-dose, HL60(TB), read-out: LC50 (the source's name)",> 100 µM
same,inhibition at 10 µM,"[1]; Homo sapiens, 10 µM single dose, HL-60(TB) (Leukemia), read-out: Growth inhibition (%)",95.5%
same,TGI,"[1]; five-dose, HL60(TB)",>100 µM
same,inhibition at 10 µM,"[2]; Homo sapiens, K562, 10 µM single dose, K-562 (Leukemia), read-out: Growth inhibition (%)",95%
same,GI50,"[2]; Homo sapiens, K562, five-dose, K-562",3.08 µM
same,CC50,"[2]; Homo sapiens, K562, five-dose, K-562, read-out: LC50 (the source's name)",> 100 µM
same,TGI,"[2]; five-dose, K-562",>100 µM
same,inhibition at 10 µM,"[3]; Homo sapiens, 10 µM single dose, RPMI-8226 (Leukemia), read-out: Growth inhibition (%)",95.5%
same,GI50,"[3]; Homo sapiens, five-dose, RPMI-8226",3.09 µM
same,CC50,"[3]; Homo sapiens, five-dose, RPMI-8226, read-out: LC50 (the source's name)",> 100 µM
same,TGI,"[3]; five-dose, RPMI-8226",>100 µM
same,inhibition at 10 µM,"[4]; Homo sapiens, 10 µM single dose, NCI-H23 (NSCLC), read-out: Growth inhibition (%)",75.6%
same,GI50,"[4]; Homo sapiens, five-dose, NCI-H23",5.93 µM
same,TGI,"[4]; five-dose, NCI-H23",>100 µM
same,GI50,[5]; Homo sapiens,23.2 µM
same,TGI,[5],>100 µM
same,inhibition at 10 µM,"[6]; Homo sapiens, 10 µM single dose, NCI-H460 (NSCLC), read-out: Growth inhibition (%)",77.7%
same,GI50,"[6]; Homo sapiens, five-dose, NCI-H460",14 µM
same,CC50,"[6]; Homo sapiens, five-dose, NCI-H460, read-out: LC50 (the source's name)",> 100 µM
same,TGI,"[6]; five-dose, NCI-H460",>100 µM
same,inhibition at 10 µM,"[7]; Homo sapiens, 10 µM single dose, NCI-H522 (NSCLC), read-out: Growth inhibition (%)",104%
same,GI50,"[7]; Homo sapiens, five-dose, NCI-H522",12.3 µM
same,TGI,"[7]; five-dose, NCI-H522",82.20 µM
same,inhibition at 10 µM,"[8]; Homo sapiens, 10 µM single dose, COLO 205 (Colon), read-out: Growth inhibition (%)",96.4%
same,GI50,"[8]; Homo sapiens, five-dose, COLO 205",9.62 µM
same,TGI,"[8]; five-dose, COLO 205",>100 µM
same,inhibition at 10 µM,"[9]; Homo sapiens, 10 µM single dose, HCC-2998 (Colon), read-out: Growth inhibition (%)",50.9%
same,GI50,"[9]; Homo sapiens, five-dose, HCC-2998",13.7 µM
same,CC50,"[9]; Homo sapiens, five-dose, HCC-2998, read-out: LC50 (the source's name)",> 100 µM
same,TGI,"[9]; five-dose, HCC-2998",>100 µM
same,inhibition at 10 µM,"[10]; Homo sapiens, 10 µM single dose, HCT-15 (Colon), read-out: Growth inhibition (%)",97.2%
same,GI50,"[10]; Homo sapiens, five-dose, HCT-15",3.46 µM
same,TGI,"[10]; five-dose, HCT-15",25.20 µM
same,inhibition at 10 µM,"[11]; Homo sapiens, 10 µM single dose, SW-620 (Colon), read-out: Growth inhibition (%)",92.7%
same,GI50,"[11]; Homo sapiens, five-dose, SW-620",2.76 µM
same,TGI,"[11]; five-dose, SW-620",>100 µM
same,inhibition at 10 µM,"[12]; Homo sapiens, 10 µM single dose, SF-268 (CNS), read-out: Growth inhibition (%)",45.4%
same,GI50,"[12]; Homo sapiens, five-dose, SF-268",10.8 µM
same,CC50,"[12]; Homo sapiens, five-dose, SF-268, read-out: LC50 (the source's name)",> 100 µM
same,TGI,"[12]; five-dose, SF-268",88.10 µM
same,inhibition at 10 µM,"[13]; Homo sapiens, 10 µM single dose, SF-539 (CNS), read-out: Growth inhibition (%)",59.3%
same,GI50,"[13]; Homo sapiens, five-dose, SF-539",13.6 µM
same,TGI,"[13]; five-dose, SF-539",>100 µM
same,GI50,"[14]; Homo sapiens, Malme-3M",18.9 µM
same,TGI,[14],75.70 µM
same,inhibition at 10 µM,"[15]; Homo sapiens, 10 µM single dose, M14 (Melanoma), read-out: Growth inhibition (%)",77.1%
same,GI50,"[15]; Homo sapiens, five-dose, M14",29 µM
same,TGI,"[15]; five-dose, M14",>100 µM
same,inhibition at 10 µM,"[16]; Homo sapiens, 10 µM single dose, MDA-MB-435 (Melanoma), read-out: Growth inhibition (%)",121%
same,GI50,"[16]; Homo sapiens, five-dose, MDA-MB-435",4.44 µM
same,TGI,"[16]; five-dose, MDA-MB-435",76.90 µM
same,inhibition at 10 µM,"[17]; Homo sapiens, 10 µM single dose, SK-MEL-2 (Melanoma), read-out: Growth inhibition (%)",66.2%
same,GI50,"[17]; Homo sapiens, five-dose, SK-MEL-2",9.67 µM
same,CC50,"[17]; Homo sapiens, five-dose, SK-MEL-2, read-out: LC50 (the source's name)",> 100 µM
same,TGI,"[17]; five-dose, SK-MEL-2",65.90 µM
same,inhibition at 10 µM,"[18]; Homo sapiens, 10 µM single dose, OVCAR-3 (Ovarian), read-out: Growth inhibition (%)",61.8%
same,GI50,"[18]; Homo sapiens, five-dose, OVCAR-3",57.7 µM
same,CC50,"[18]; Homo sapiens, five-dose, OVCAR-3, read-out: LC50 (the source's name)",> 100 µM
same,TGI,"[18]; five-dose, OVCAR-3",2.26 µM
same,inhibition at 10 µM,"[19]; Homo sapiens, 10 µM single dose, OVCAR-5 (Ovarian), read-out: Growth inhibition (%)",21.7%
same,GI50,"[19]; Homo sapiens, five-dose, OVCAR-5",25 µM
same,TGI,"[19]; five-dose, OVCAR-5",>100 µM
same,inhibition at 10 µM,"[20]; Homo sapiens, 10 µM single dose, NCI/ADR-RES (Ovarian), read-out: Growth inhibition (%)",112%
same,GI50,"[20]; Homo sapiens, five-dose, NCI/ADR-RES",3.45 µM
same,TGI,"[20]; five-dose, NCI/ADR-RES",23.60 µM
same,inhibition at 10 µM,"[21]; Homo sapiens, 10 µM single dose, 786-0 (Renal), read-out: Growth inhibition (%)",47.2%
same,GI50,"[21]; Homo sapiens, five-dose, 786-0",26.6 µM
same,CC50,"[21]; Homo sapiens, five-dose, 786-0, read-out: LC50 (the source's name)",> 100 µM
same,TGI,"[21]; five-dose, 786-0",>100 µM
same,inhibition at 10 µM,"[22]; Homo sapiens, 10 µM single dose, A498 (Renal), read-out: Growth inhibition (%)",8.9%
same,GI50,"[22]; Homo sapiens, five-dose, A498",18 µM
same,CC50,"[22]; Homo sapiens, five-dose, A498, read-out: LC50 (the source's name)",> 100 µM
same,TGI,"[22]; five-dose, A498",85.20 µM
same,inhibition at 10 µM,"[23]; Homo sapiens, 10 µM single dose, ACHN (Renal), read-out: Growth inhibition (%)",55.1%
same,GI50,"[23]; Homo sapiens, five-dose, ACHN",10.8 µM
same,TGI,"[23]; five-dose, ACHN",75.30 µM
same,GI50,[24]; Homo sapiens,2.7 µM
same,CC50,"[24]; Homo sapiens, read-out: LC50 (the source's name)",> 100 µM
same,TGI,[24],>100 µM
same,inhibition at 10 µM,"[25]; Homo sapiens, 10 µM single dose, DU-145 (Prostate), read-out: Growth inhibition (%)",58.6%
same,GI50,"[25]; Homo sapiens, five-dose, DU-145",13.2 µM
same,TGI,"[25]; five-dose, DU-145",54.90 µM
same,inhibition at 10 µM,"[26]; Homo sapiens, 10 µM single dose, MCF7 (Breast), read-out: Growth inhibition (%)",90.5%
same,GI50,"[26]; Homo sapiens, five-dose, MCF7",2.9 µM
same,CC50,"[26]; Homo sapiens, five-dose, MCF7, read-out: LC50 (the source's name)",> 100 µM
same,TGI,"[26]; five-dose, MCF7",30.90 µM
same,inhibition at 10 µM,"[27]; Homo sapiens, 10 µM single dose, HS 578T (Breast), read-out: Growth inhibition (%)",62.7%
same,GI50,"[27]; Homo sapiens, five-dose, HS 578T",12.8 µM
same,CC50,"[27]; Homo sapiens, five-dose, HS 578T, read-out: LC50 (the source's name)",> 100 µM
same,TGI,"[27]; five-dose, HS 578T",98.10 µM
same,inhibition at 10 µM,"[28]; Homo sapiens, 10 µM single dose, BT-549 (Breast), read-out: Growth inhibition (%)",95.7%
same,GI50,"[28]; Homo sapiens, five-dose, BT-549",10.4 µM
same,CC50,"[28]; Homo sapiens, five-dose, BT-549, read-out: LC50 (the source's name)",> 100 µM
same,TGI,"[28]; five-dose, BT-549",46.30 µM
same,inhibition at 10 µM,[29],84.2%
same,inhibition at 10 µM,[30],18.3%
same,inhibition at 10 µM,[31],68.4%
